{"source": "ChEMBL document CHEMBL3832052", "test": "clinical", "details": "human, in vivo, po"}
{"smiles": "Cc1cc(NS(=O)(=O)c2ccc(N)cc2)no1", "note": "[SULFAMETHOXAZOLE]", "values": [{"measurement": "Tmax", "result": "1 to 4", "unit": "h"}]}
